Results published in patent US9018383B2, “Acylamino-substituted cyclic carboxylic acid derivatives and their use as pharmaceuticals” (Sanofi, priority 2009, dated 2015).

Target: human Edg-2 receptor (Homo sapiens, UniProt Q92633)
Assay: Determination of Edg-2 receptor inhibition by FLIPR measurements (LPA-mediated calcium liberation)
Format: cell-based
Conditions: CHO cells overexpressing human Edg-2 receptor, LPA 100 nM, fluo-4 calcium fluorescence; read-out: Inhibitory concentrations IC50 for inhibition of the Edg-2 receptor
Procedure, shortened: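 CHO cells stably overexpressing human Edg-2, loaded with fluo-4 AM, were pre-incubated ~5 min with compound (≤0.3% DMSO), then stimulated with 100 nM LPA 18:1 in HBSS/HEPES/probenecid, pH 7.5. Peak calcium fluorescence over ~3 min, baseline-corrected, versus DMSO gave % inhibition; IC50 from triplicates.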

Chain of human Edg-2 receptor (Q92633 whole entry): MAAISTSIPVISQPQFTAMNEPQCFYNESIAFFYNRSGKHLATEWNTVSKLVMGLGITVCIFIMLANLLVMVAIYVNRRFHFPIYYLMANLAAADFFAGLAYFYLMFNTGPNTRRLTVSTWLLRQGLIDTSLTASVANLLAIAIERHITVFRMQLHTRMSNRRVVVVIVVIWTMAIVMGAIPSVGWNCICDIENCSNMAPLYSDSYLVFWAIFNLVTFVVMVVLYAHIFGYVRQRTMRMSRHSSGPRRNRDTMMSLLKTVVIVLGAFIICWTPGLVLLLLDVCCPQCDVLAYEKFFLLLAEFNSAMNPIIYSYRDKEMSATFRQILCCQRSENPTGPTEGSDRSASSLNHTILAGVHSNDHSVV

SMILES | IC50 [µM]
C[C@H]1CC[C@](NC(=O)c2ccc(OCCO)c(OCCc3cccc(Cl)c3)c2)(C(=O)O)CC1 [Example 119, cis-1-[3-[2-(3-Chloro-phenyl)-ethoxy]-4-(2-hydroxy-ethoxy)-benzoylamino]-4-methyl-cyclohexanecarboxylic acid] | < 0.1
O=C(NC1(C(=O)O)CCCCCC1)c1ccc(OCCO)c(OCCc2cccc(Cl)c2)c1 [Example 121, 1-[3-[2-(3-Chloro-phenyl)-ethoxy]-4-(2-hydroxy-ethoxy)-benzoylamino]-cycloheptane-carboxylic acid] | 0.1 to 1
Cc1cccc(CCOc2cc(C(=O)N[C@]3(C(=O)O)CC[C@@H](C)CC3)ccc2OCCO)c1 [Example 122, trans-1-[4-(2-Hydroxy-ethoxy)-3-(2-m-tolyl-ethoxy)-benzoylamino]-4-methyl-cyclohexanecarboxylic acid] | < 0.1
Cc1cccc(CCOc2cc(C(=O)N[C@]3(C(=O)O)CC[C@H](C)CC3)ccc2OCCO)c1 [Example 123, cis-1-[4-(2-Hydroxy-ethoxy)-3-(2-m-tolyl-ethoxy)-benzoylamino]-4-methyl-cyclohexanecarboxylic acid] | < 0.1
Cc1cccc(CCOc2cc(C(=O)NC3(C(=O)O)CCCCCC3)ccc2OCCO)c1 [Example 124, 1-[4-(2-Hydroxy-ethoxy)-3-(2-m-tolyl-ethoxy)-benzoylamino]-cycloheptane-carboxylic acid] | 0.1 to 1
CC[C@H]1CC[C@](NC(=O)c2ccc(C(F)(F)F)c(-c3ccc(OC)c(Cl)c3)c2)(C(=O)O)CC1 [Example 125, cis-1-[(3′-Chloro-4′-methoxy-6-trifluoromethyl-biphenyl-3-carbonyl)-amino]-4-ethyl-cyclohexanecarboxylic acid] | < 0.1
CC[C@H]1CC[C@](NC(=O)c2ccc(OC)c(OCCc3cccc(C4COC4)c3)c2)(C(=O)O)CC1 [Example 127, cis-4-Ethyl-1-{4-methoxy-3-[2-(3-oxetan-3-yl-phenyl)-ethoxy]-benzoylamino}-cyclohexanecarboxylic acid] | < 0.1
COc1ccc(C(=O)N[C@]2(C(=O)O)CC[C@@H](C)CC2)cc1OCCc1cccc(C2COC2)c1 [Example 128, trans-1-{4-Methoxy-3-[2-(3-oxetan-3-yl-phenyl)-ethoxy]-benzoylamino}-4-methyl-cyclohexanecarboxylic acid] | 0.1 to 1
COc1ccc(C(=O)NC2(C(=O)O)CCCCCC2)cc1OCCc1cccc(C2COC2)c1 [Example 129, 1-{4-Methoxy-3-[2-(3-oxetan-3-yl-phenyl)-ethoxy]-benzoylamino}-cycloheptanecarboxylic acid] | 0.1 to 1
CC[C@H]1CC[C@](NC(=O)c2ccc(C3COC3)c(OCCc3cccc(C)c3)c2)(C(=O)O)CC1 [Example 130, cis-4-Ethyl-1-[4-oxetan-3-yl-3-(2-m-tolyl-ethoxy)-benzoylamino]-cyclohexanecarboxylic acid] | < 0.1
Cc1cccc(CCOc2cc(C(=O)N[C@]3(C(=O)O)CC[C@H](C(F)(F)F)CC3)ccc2C2COC2)c1 [Example 131, cis-1-[4-Oxetan-3-yl-3-(2-m-tolyl-ethoxy)-benzoylamino]-4-trifluoromethyl-cyclohexanecarboxylic acid] | < 0.1
Cc1cccc(CCOc2cc(C(=O)NC3(C(=O)O)CCCCCC3)cc3c2OCO3)c1 [Example 132, 1-{[7-(2-m-Tolyl-ethoxy)-benzo[1,3]dioxole-5-carbonyl]-amino}-cycloheptanecarboxylic acid] | < 0.1
Cc1cccc(CCOc2cc(C(=O)N[C@]3(C(=O)O)CC[C@H](C(F)(F)F)CC3)cc3c2OCO3)c1 [Example 133, cis-1-{[7-(2-m-Tolyl-ethoxy)-benzo[1,3]dioxole-5-carbonyl]-amino}-4-trifluoromethyl-cyclohexanecarboxylic acid] | < 0.1
CC[C@H]1CC[C@](NC(=O)c2cc(OCCc3cccc(C)c3)c3c(c2)OCO3)(C(=O)O)CC1 [Example 134, cis-4-Ethyl-1-{[7-(2-m-tolyl-ethoxy)-benzo[1,3]dioxole-5-carbonyl]-amino}-cyclohexanecarboxylic acid] | < 0.1
